Experimental findings from US20160195530A1, “METHOD FOR ANALYSIS OF NKT CELL FUNCTION” (RIKEN, priority 2005, published 2016) are described below.

For assay [1], the system named is NKT cells in peripheral blood. Kind of assay: ELISPOT assay of IFN-γ-producing cells with α-GalCer-loaded mature DCs (autologous, allogeneic, heterologous). The class given is cell-based, human. Conditions: α-GalCer 100 ng/ml. An excerpt: In order to study whether activation of NKT cells in peripheral blood varies by DCs of different derivation, NKT cell activation in an autologous, allogeneic or heterologous system was studied by an ELISPOT assay with IFN-γ productivity as an index.
Human DCs were obtained by purifying CD14% monocytes with magnetic beads (Miltenyi Biotec Inc. Auburn, Calif.) and cultivating them for 7 days in the presence of 500 U/ml recombinant human IL-4 and 1,000 U/ml recombinant human GM-CSF. α-GalCer (100 ng/ml) or the same amount of vehicle (DMSO, Sigma) was loaded onto DCs at the 5th day, given maturation stimuli (10 ng/ml IL-1β, 10 ng/ml TNFα, and 1 μg/ml PGE2) at the 6th day, and recovered at the 7th day.
Bone marrow precursor cells were grown into DCs induced from mouse bone marrow in 5% FCS-containing RPMI-1640 using mouse GM-CSF. At the 6th day, α-GalCer (100 ng/ml) was added to immature bone marrow DCs, and cultivation was performed for 40 hr. For maturation of DCs, 100 ng/ml LPS was added at the 7th day, and cultivation was performed for 16 hr. Matured α-GalCer-pulsed DCs were recovered at the 8th day.
For detection of IFN-γ-secreting cells, 96-well filtration plates (Millipore, Bedford, Mass.) were coated with mouse anti-human IFN-γ (10 μg/ml, Mabtech, Sweden). PBMCs (1×10^6) were incubated in RPMI containing 5% human AB serum or 10% calf serum (complete medium or CM; GIBCO) in either presence or absence of α-GalCer (100 ng/ml). PMA (10 μg/ml) and ionomycin were used as positive controls. […] Spot-forming cells (SFC) were quantified with a microscope. When the reactivity was not less than 10 SFC/well and not less than twice the background (without αGalCer), the assay was scored as positive. In order to compare naive NKT cell activation ability of different APCs (autologous, allogeneic and heterologous DC) in cultures, Mφ-depleted cells (1×10^6/well) were cultivated with […] α-GalCer or vehicle-loaded APCs (1×10^5/well) in CM for 16 hr. α-GalCer-dependent IFN-γ-producing cells were measured by an ELISPOT assay.

For a further assay, the system named is human NKT cells. Kind of assay: IFN-γ ELISA after cocultivation of isolated human NKT cells with α-GalCer-pulsed autologous or heterologous DCs. The class given is cell-based. Conditions: α-GalCer-pulsed heterologous (mouse) DCs versus autologous DCs. On the procedure:
In order to clarify that a human NKT cell can be specifically activated by a heterologous DC, human NKT cells were isolated, cocultivated with α-GalCer-pulsed autologous or heterologous DCs, after which the culture supernatants were collected, and cytokine production was measured by the ELISA method.
After growth of the NKT cell with α-GalCer and IL-2, the cells were sorted using FACS Vantage with anti-invariant NKT antibodies, and cocultivated with α-GalCer-pulsed heterologous or autologous DCs, after which IFN-γ was quantified by the ELISA method.

Another assay has as its system NKT cell line. Kind of assay: Antigen-specific growth of NKT cell line cocultivated with heterologous DCs. Conditions: heterologous DCs in presence of antigen, 10 days, serially diluted NKT cell line mixed with NKT cell-removed PBMCs. The class given is cell-based, human. Here is the method: Mature DCs were stimulated for maturation, as well as pulsed using α-GalCer (100 ng/ml) for 48 hr in the 5th-7th days of the cultivation. 1×10^4 DCs pulsed with α-GalCer were added to the each well of 1×10^5 Mφ-depleted PBMCs in the presence of recombinant IL-2 (100 U/ml). 10-14 Days later, Va24^+ NKT cells were stained with FITC-labeled anti-Vα24 mAb, and selected using anti-FITC magnetic beads. Va24^+ NKT cells were maintained as a cell line in CM in the presence of 100 U/ml IL-2, and restimulated by PBMCs that had been irradiated in the presence of α-GalCer.
After serial dilution of the NKT cell line that was prepared by the method described in Example 4, the diluted solutions were mixed with NKT cell-removed PBMCs, cocultivated with heterologous DCs in the presence of an antigen (α-GalCel), and the growth rates were calculated 10 days later.

Assay [2] has as its system NKT cell contained in peripheral blood of a healthy subject. Kind of assay: Cocultivation of Mφ-depleted PBMC with α-GalCer-pulsed mature mouse DC, flow cytometry and intracellular staining. In kind it is cell-based, human. Conditions: healthy subjects; α-GalCer-pulsed mature mouse DCs, IL-2 100 U/ml, 9 days. Here is the method: At first, mouse DCs were induced from mouse bone marrow cells. Mouse bone marrow cells were cultivated in 5% FCS-containing RPMI-1640 in the presence of mouse GM-CSF under 5% CO2 at 37° C. for 5 days.
Subsequently, immature mouse DCs were maturated. To the culture obtained as mentioned above (containing immature mouse DCs), α-GalCer (100 ng/ml) was added at the 6th day, and the culture was cultivated for 40 hr. For an acieration of the maturation, 100 ng/ml LPS was added at the 7th day, and the culture was cultivated for 16 hr. Thus obtained α-GalCer-pulsed mature mouse DCs were recovered at the 8th day.
PBMCs were obtained by blood drawing from healthy subjects, and Mφ-depleted PBMCs were obtained by removing macrophages (Mφ) using an anti-CD14 antibody (simultaneously using a CD11c antibody as necessary) and magnetic beads.
α-GalCer-pulsed mature mouse DCs (5×10^4 cells/ml) obtained by the above-mentioned (1) and Mφ-depleted PBMCs (5×10^5 cells/ml) obtained by the above-mentioned (2) were cultivated in 10% FCS-containing RPMI-1640 in the presence of recombinant human IL-2 (100 U/ml) under 5% CO2 at 37° C. for 9 days.
After cultivation in accordance with the protocol of the above-mentioned (1)-(3), the number of NKT cells and the frequency of NKT cells having an cytokine production ability were measured by flow cytometry and intracellular staining. […]
Background: A flow cytometer gives signals particle by particle.

The structures appear in SMILES notation.

With `CCCCCCCCCCCCCCCCCCCCCCCCCC(=O)N[C@@H](CO[C@H]1O[C@H](CO)[C@H](O)[C@H](O)[C@H]1O)[C@H](O)[C@H](O)CCCCCCCCCCCCCC` [α-GalCer, 25,35,4R-1-0(α-galactopyranosyl)-2(N-hexacosanoylamino)-1,3,4-octadecanetriol], the “α-GalCer-dependent NKT cell activation (IFN-γ productivity, ELISPOT)” value in assay [1] (high frequency NKT cell-containing group (% NKT>0.05%), autologous and heterologous DCs) was “activation of NKT cell was confirmed”; in assay [1] (low frequency NKT cell-containing group (% NKT<0.01%)) it was “NKT cell activation was not confirmed”; in assay [1] (middle frequency NKT cell-containing group (0.01%<% NKT<0.05%)), “activation of NKT cell was confirmed in an α-GalCer dependent manner, but the production amount was found to be decreased”. Besides, the “IFN-γ production (ELISA, culture supernatant)” value in the assay on human NKT cells is given as “IFN-γ production was confirmed in the heterologous system, though it was lower than in the autologous system”. In the assay with NKT cell line, the “antigen-specific growth of human NKT cells” value is listed as “antigen-specifically grown by heterologous DCs”. Further, the “cytokine production (frequency of NKT cells having cytokine production ability, IFN-γ)” value in assay [2] is given as “confirmed”. Moreover, the “α-GalCer-dependent growth of human NKT cells (number of NKT cells)” value in assay [2] is given as “confirmed”.
